Test results from ChEMBL document CHEMBL1146649, “New highly active taxoids from 9 beta-dihydrobaccatin-9,10-acetals. Part 5” (2004).
In brackets after ≈: the same amount, converted by molar mass.

Legend:
PC-12 = experiment: Concentration required to inhibit human PC-12 cell line growth by 50% at 72 hr continuous exposure; assay type: functional; details: PC-12, 72 h
PC-6 [1] = experiment: Concentration required to inhibit human PC-6/VP1-1 cell line growth by 50% at 72 hr exposure; assay type: functional; details: PC-6, 72 h
PC-6 [2] = experiment: Concentration required to inhibit human PC-6 cell line growth by 50% at 72 hr continuous exposure; assay type: functional; details: PC-6, 72 h
P388 = experiment: Concentration required to inhibit mouse P388 cell line growth by 50% at 72 hr continuous exposure; assay type: functional; details: P388, 72 h
PC-6 [3] = experiment: Concentration that inhibited the growth of PC-6/VCR29-9 cells by 50% at 72 hr continuous exposure; assay type: functional; details: Homo sapiens, PC-6, 72 h
B16 [4] = experiment: Effective dose of intravenously administered compound against B16 melanoma BL6 cells implanted into mice; assay type: functional; details: Mus musculus, B16, iv
B16 [5] = experiment: Effective dose of perorally administered compound against B16 melanoma BL6 cells implanted into mice; assay type: functional; details: Mus musculus
PC-6 [6] = experiment: Concentration required to inhibit human PC-6/VCR29-9 cell line growth by 50% at 72 hr exposure; assay type: functional; details: PC-6, 72 h
B16 [7] = experiment: Antitumor activity of 11.9 mg/kg of perorally administered compound against B16 melanoma BL6 cells implanted into mice, value reported is percent compared to control; assay type: functional, Mus musculus; details: route oral
Mus musculus [8] = experiment: Antitumor activity of 26.7 mg/kg of perorally administered compound against B16 melanoma BL6 cells implanted into mice, value reported is percent compared to control; assay type: functional; details: route oral
Mus musculus [9] = experiment: Maximum rate of body weight loss after peroral administration of 7.9 mg/kg of compound in mice; <0 indicates no body weight loss; assay type: functional; details: route oral
Mus musculus [10] = experiment: Number of mice died at 26.7 mg/kg of peroral dose of compound among the total 6 mice tested; assay type: functional; details: route oral
B16 [11] = experiment: Antitumor activity of 11.9 mg/kg of intravenously administered compound against B16 melanoma BL6 cells implanted into mice, value reported is percent compared to control; assay type: functional, Mus musculus; details: route intravenous
Mus musculus [12] = experiment: Number of mice died at 26.7 mg/kg of intravenous dose of compound among the total 6 mice tested; assay type: functional
Mus musculus [13] = experiment: Effective dose of perorally administered compound against B16 melanoma BL6 cells implanted into mice; range is 7.9-17.8; assay type: functional; details: B16, po
Mus musculus [14] = experiment: Maximum rate of body weight loss after intravenous administration of 17.8 mg/kg of compound in mice; assay type: functional
Mus musculus [15] = experiment: Antitumor activity of 7.9 mg/kg of intravenously administered compound against B16 melanoma BL6 cells implanted into mice, value reported is percent compared to control; assay type: functional; details: route intravenous
Mus musculus [16] = experiment: Number of mice died at 11.9 mg/kg of peroral dose, among the total 6 mice tested; assay type: functional; details: route oral
Mus musculus [17] = experiment: Maximum rate of body weight loss after intravenous administration of 7.9 mg/kg of compound in mice; <0 indicates no weight loss; assay type: functional
Mus musculus [18] = experiment: Number of mice died at 17.8 mg/kg of peroral dose among the total 6 mice tested; assay type: functional; details: route oral
Mus musculus [19] = experiment: Maximum rate of body weight loss after peroral administration of 11.9 mg/kg of compound in mice; <0 indicates no body weight loss; assay type: functional; details: route oral
Mus musculus [20] = experiment: Number of mice died at 11.9 mg/kg of intravenous dose, among the total 6 mice tested; assay type: functional
Mus musculus [21] = experiment: Antitumor activity of 17.8 mg/kg of intravenously administered compound against B16 melanoma BL6 cells implanted into mice, value reported is percent compared to control; assay type: functional; details: route intravenous
Mus musculus [22] = experiment: Maximum rate of body weight loss after intravenous administration of 11.9 mg/kg of compound in mice; assay type: functional
Mus musculus [23] = experiment: Number of mice died at 7.9 mg/kg of peroral dose of compound among the total 6 mice tested; assay type: functional; details: route oral
B16 [24] = experiment: Antitumor activity of 17.8 mg/kg of perorally administered compound against B16 melanoma BL6 cells implanted into mice, value reported is percent compared to control; assay type: functional, Mus musculus; details: route oral
Mus musculus [25] = experiment: Effective dose of intravenously administered compound against B16 melanoma BL6 cells implanted into mice; range is 7.9-17.8; assay type: functional; details: B16, iv
Mus musculus [26] = experiment: Maximum rate of body weight loss after peroral administration of 26.7 mg/kg of compound in mice; assay type: functional; details: route oral
Mus musculus [27] = experiment: Number of mice died at 7.9 mg/kg of intravenous dose of compound among the total 6 mice tested; assay type: functional
Mus musculus [28] = experiment: Antitumor activity of 7.9 mg/kg of perorally administered compound against B16 melanoma BL6 cells implanted into mice, value reported is percent compared to control; assay type: functional; details: route oral
Mus musculus [29] = experiment: Maximum rate of body weight loss after peroral administration of 17.8 mg/kg of compound in mice; assay type: functional; details: route oral
Mus musculus [30] = experiment: Number of mice died at 17.8 mg/kg of intravenous dose among the total 6 mice tested; assay type: functional
PC-6 [31] = experiment: Concentration required to inhibit human PC-6/VCR29-9 cell line growth by 50% at 72 hr of exposure; assay type: functional; details: PC-6, 72 h

## CC(=O)O[C@@]12CO[C@@H]1CC[C@@]1(C)[C@@H]3O[C@H](CN(C)C)O[C@@H]3C3=C(C)[C@@H](OC(=O)[C@H](O)[C@@H](NC(=O)OC(C)(C)C)c4cscn4)C[C@@](O)([C@@H](OCc4ccccc4)[C@@H]12)C3(C)C
PC-12
  GI50: 0.19 ng/mL (≈ 0.222 nM)
PC-6 [1]
  GI50: 17.3 ng/mL (≈ 20.2 nM)
PC-6 [2]
  GI50: 0.35 ng/mL (≈ 0.409 nM)
P388
  GI50: 0.06 ng/mL (≈ 0.0701 nM)
PC-6 [3]
  GI50: 1.1 ng/mL (≈ 1.28 nM)

## CC(=O)O[C@@]12CO[C@@H]1CC[C@@]1(C)[C@@H]3O[C@H](CN4CCOCC4)O[C@@H]3C3=C(C)[C@@H](OC(=O)[C@H](O)[C@@H](NC(=O)OC(C)(C)C)c4ccc(F)cn4)C[C@@](O)([C@@H](OCc4ccccc4)[C@@H]12)C3(C)C
B16 [4]
  ED50: 3.5 mg/kg
B16 [5]; B16, po
  ED50: 7.9 mg/kg

## CC(=O)O[C@@]12CO[C@@H]1CC[C@@]1(C)[C@@H]3O[C@H](CNC4CC4)O[C@@H]3C3=C(C)[C@@H](OC(=O)[C@H](O)[C@@H](NC(=O)OC(C)(C)C)c4nccs4)C[C@@](O)([C@@H](OCc4ccccc4)[C@@H]12)C3(C)C
PC-12
  GI50: 0.12 ng/mL (≈ 0.138 nM)
PC-6 [6]
  GI50: 1.16 ng/mL (≈ 1.34 nM)
PC-6 [1]
  GI50: 39.4 ng/mL (≈ 45.4 nM)
PC-6 [2]
  GI50: 0.42 ng/mL (≈ 0.484 nM)
P388
  GI50: 0.06 ng/mL (≈ 0.0691 nM)

## CC(=O)O[C@@]12CO[C@@H]1CC[C@@]1(C)[C@@H]3O[C@H](CN(C)C)O[C@@H]3C3=C(C)[C@@H](OC(=O)[C@H](O)[C@@H](NC(=O)OC(C)(C)C)c4ccccn4)C[C@@](O)([C@@H](OCc4ccccc4)[C@@H]12)C3(C)C
B16 [7]
  IR: 88.8%
PC-12
  GI50: 0.74 ng/mL (≈ 0.871 nM)
PC-6 [6]
  GI50: 4.04 ng/mL (≈ 4.75 nM)
Mus musculus [8]
  IR: 97.5%
Mus musculus [9]
  BWLmax: <0%
Mus musculus [10]
  Mortality: 1
B16 [11]
  IR: 95%
Mus musculus [12]
  Mortality: 6
Mus musculus [13]
  ED50: 17.8 mg/kg
Mus musculus [14]
  BWLmax: 8.6%
PC-6 [1]
  GI50: 54.2 ng/mL (≈ 63.8 nM)
Mus musculus [15]
  IR: 82.3%
Mus musculus [16]
  Mortality: 0
PC-6 [2]
  GI50: 0.38 ng/mL (≈ 0.447 nM)
Mus musculus [17]
  BWLmax: <0%
Mus musculus [18]
  Mortality: 0
Mus musculus [19]
  BWLmax: <0%
Mus musculus [20]
  Mortality: 0
Mus musculus [21]
  IR: 97.7%
P388
  GI50: 0.41 ng/mL (≈ 0.482 nM)
Mus musculus [22]
  BWLmax: 1%
Mus musculus [23]
  Mortality: 0
B16 [24]
  IR: 97%
Mus musculus [25]
  ED50: 17.8 mg/kg
Mus musculus [26]
  BWLmax: 13.1%
Mus musculus [27]
  Mortality: 0
Mus musculus [28]
  IR: 72.8%
Mus musculus [29]
  BWLmax: 8.8%
Mus musculus [30]
  Mortality: 0

## CNC[C@@H]1O[C@@H]2C3=C(C)[C@@H](OC(=O)[C@H](O)[C@@H](NC(=O)OC(C)(C)C)c4ccccn4)C[C@@](O)([C@@H](OCc4ccccc4)[C@H]4[C@@](C)(CC[C@H]5OC[C@]54OC(C)=O)[C@@H]2O1)C3(C)C
PC-12
  GI50: 5.82 ng/mL (≈ 6.96 nM)
PC-6 [6]
  GI50: 43.2 ng/mL (≈ 51.7 nM)
PC-6 [1]
  GI50: 265 ng/mL (≈ 317 nM)
PC-6 [2]
  GI50: 0.54 ng/mL (≈ 0.646 nM)
P388
  GI50: 0.6 ng/mL (≈ 0.718 nM)

## CC(=O)O[C@@]12CO[C@@H]1CC[C@@]1(C)[C@@H]3O[C@H](CN(C)C)O[C@@H]3C3=C(C)[C@@H](OC(=O)[C@H](O)[C@@H](NC(=O)OC(C)(C)C)C(C)(C)C)C[C@@](O)([C@@H](OCc4ccccc4)[C@@H]12)C3(C)C
PC-12
  GI50: 0.5 ng/mL (≈ 0.603 nM)
PC-6 [6]
  GI50: 1.42 ng/mL (≈ 1.71 nM)
B16 [4]
  ED50: 11.9 mg/kg
PC-6 [1]
  GI50: 15.7 ng/mL (≈ 18.9 nM)
PC-6 [2]
  GI50: 0.67 ng/mL (≈ 0.808 nM)
P388
  GI50: 0.73 ng/mL (≈ 0.881 nM)
B16 [5]; B16, po
  ED50: 11.9 mg/kg

## CC(=O)O[C@H]1C(=O)[C@@]2(C)[C@H]([C@H](OCc3ccccc3)[C@]3(O)C[C@H](OC(=O)[C@H](O)[C@@H](NC(=O)c4ccccc4)c4ccccc4)C(C)=C1C3(C)C)[C@]1(OC(C)=O)CO[C@@H]1C[C@@H]2O
PC-12
  GI50: 539 ng/mL (≈ 642 nM)
PC-6 [1]
  GI50: 1000 ng/mL (≈ 1190 nM)
PC-6 [2]
  GI50: 1.27 ng/mL (≈ 1.51 nM)
P388
  GI50: 2.93 ng/mL (≈ 3.49 nM)
PC-6 [31]
  GI50: 455 ng/mL (≈ 542 nM)

## CC(=O)O[C@@]12CO[C@@H]1CC[C@@]1(C)[C@@H]3O[C@H](CN4CCOCC4)O[C@@H]3C3=C(C)[C@@H](OC(=O)[C@H](O)[C@@H](NC(=O)OC(C)(C)C)c4cncs4)C[C@@](O)([C@@H](OCc4ccccc4)[C@@H]12)C3(C)C
PC-12
  GI50: 0.12 ng/mL (≈ 0.134 nM)
B16 [4]
  ED50: 7.9 mg/kg
PC-6 [1]
  GI50: 20.5 ng/mL (≈ 22.8 nM)
PC-6 [2]
  GI50: 0.07 ng/mL (≈ 0.0779 nM)
P388
  GI50: 0.04 ng/mL (≈ 0.0445 nM)
B16 [5]
  ED50: None
PC-6 [3]
  GI50: 0.66 ng/mL (≈ 0.735 nM)

## CC(=O)O[C@@]12CO[C@@H]1CC[C@@]1(C)[C@@H]3O[C@H](CN(C)C)O[C@@H]3C3=C(C)[C@@H](OC(=O)[C@H](O)[C@@H](NC(=O)OC(C)(C)C)c4cncs4)C[C@@](O)([C@@H](OCc4ccccc4)[C@@H]12)C3(C)C
PC-12
  GI50: 0.17 ng/mL (≈ 0.199 nM)
PC-6 [1]
  GI50: 23.8 ng/mL (≈ 27.8 nM)
PC-6 [2]
  GI50: 0.3 ng/mL (≈ 0.35 nM)
P388
  GI50: 0.07 ng/mL (≈ 0.0818 nM)
PC-6 [3]
  GI50: 1.63 ng/mL (≈ 1.9 nM)

## COc1ccc([C@H](NC(=O)OC(C)(C)C)[C@@H](O)C(=O)O[C@H]2C[C@@]3(O)[C@@H](OCc4ccccc4)[C@H]4[C@@](C)(CC[C@H]5OC[C@]54OC(C)=O)[C@@H]4O[C@H](CN5CCOCC5)O[C@@H]4C(=C2C)C3(C)C)nc1
B16 [4]
  ED50: 5.9 mg/kg
B16 [5]; B16, po
  ED50: 13.3 mg/kg

## CC(=O)O[C@@]12CO[C@@H]1CC[C@@]1(C)[C@@H]3O[C@H](CNC4CC4)O[C@@H]3C3=C(C)[C@@H](OC(=O)[C@H](O)[C@@H](NC(=O)OC(C)(C)C)c4ccccn4)C[C@@](O)([C@@H](OCc4ccccc4)[C@@H]12)C3(C)C
PC-12
  GI50: 0.3 ng/mL (≈ 0.348 nM)
PC-6 [6]
  GI50: 2.22 ng/mL (≈ 2.58 nM)
PC-6 [1]
  GI50: 49.4 ng/mL (≈ 57.3 nM)
PC-6 [2]
  GI50: 0.54 ng/mL (≈ 0.626 nM)
P388
  GI50: 0.17 ng/mL (≈ 0.197 nM)
